Assay results from patent US11976334B2, “Inhibitor of ATR kinase for use in a method of treating a hyper-proliferative disease” (Bayer Aktiengesellschaft, priority 2017, dated 2024).

Columns and labels:
NCI-H23 = assay: Tumor cell proliferation, NCI-H23 (crystal violet); format: cell-based; conditions: Homo sapiens, 96 h; NCI-H23, Lung; 4 days; read-out: in vitro (IC50, nM), inhibition of tumor cell proliferation
Source text: (§1) All measurements were done in quadruplicates.

[1] = tested on: LNCaP human prostate cancer cells; assay: Proliferation of LNCaP cells (CellTiter-Glow); format: cell-based; conditions: 144 h, R1881 1 nM, day 6, read-out: in vitro (IC50, nM), inhibition of tumor cell proliferation
Protocol: They were plated in RPMI1640 medium without phenol red+10% charcoal-stripped FCS at 600 cells/well in a 384-well white plate. […] Cell number was determined by CellTiter-Glow (Promega) at day 0 and day 6. Luminescence was determined in Victor X3. The inhibition of cell growth was calculated by normalization with respect to the fluorescence reading (cell number) measured at the end of the experiment for cells treated with R1881 alone compared to the fluorescence reading (cell number) measured at the start of the experiment for DMSO-treated cells.

U-87MG = assay: Tumor cell proliferation, U-87MG (crystal violet); format: cell-based; conditions: Homo sapiens, 96 h, Glioblastoma, 4 days, read-out: in vitro (IC50, nM), inhibition of tumor cell proliferation
Source text: as §1

[2] = tested on: LOVO xenograft (colorectal cancer); conditions: mouse, in vivo, po, 50 mg/kg
Protocol: (§2) For this purpose, mice were implanted subcutaneously with tumor cells. […] The oral application volume was 10 ml/kg. The time interval between two applications per day was 6-7 h. […] The tumor size and the body weight were determined three times weekly. Changes in the body weight were a measure of treatment-related toxicity (>10%=critical, stop of treatment until recovery, >20%=toxic, termination). The tumor area was detected by means of an electronic caliper gauge [length (mm)×width (mm)]. In vivo anti-tumor efficacy is presented as T/C ratio (Treatment/Control) calculated with tumor areas at study end by the formula [(tumor area of treatment group at day x)−(tumor area of treatment group at day before first treatment)]/[(tumor area of control group at day x)−(tumor area of control group at day before first treatment)]. […] Statistical analysis was assessed using SigmaStat software. A one-way analysis of variance was performed and differences to the control were compared by a pair-wise comparison procedure (Dunn's method).

PC3 xenograft (prostate) = conditions: mouse, in vivo, po, 50 mg/kg
Protocol: as §2

[3] = tested on: REC-1 xenograft (mantle cell lymphoma); conditions: mouse, in vivo, po, 50 mg/kg
Protocol: as §2

[4] = tested on: A2780 xenograft (ovarian); conditions: mouse, in vivo, po, 50 mg/kg
Protocol: as §2

[5] = tested on: 22RV1 human prostate cancer cells; assay: Proliferation of 22Rv1 cells (crystal violet); format: cell-based; conditions: 96 h, 22Rv1, Prostate, 4 days, read-out: in vitro (IC50, nM), inhibition of tumor cell proliferation
Protocol: (§3) 22RV1 human prostate cancer cells were obtained from the American Type Culture Collection (ATCC CRL-2505). They were plated in RPMI1640 medium supplemented with 10% FCS at 5000 cells/well in a 96-well microtiter plate. After 24 h, the cells from one microtiter plate were stained with crystal violet (==>0 plate), whereas the cells in the test plates were exposed continuously for 4 days to test substances. Cell proliferation was determined by staining with crystal violet. The absorbance was determined photometrically at 595 nm using a Tecan Sunrise instrument.

[6] = tested on: LAPC-4 human prostate cancer cells; assay: Proliferation of LAPC-4 cells (Alamar Blue); format: cell-based; conditions: 168 h, LapC4, Prostate, R1881 1 nM, day 7, read-out: in vitro (IC50, nM), inhibition of tumor cell proliferation
Protocol: LAPC-4 human prostate cancer cells were obtained from the VTT Technical Resarch Center (Finland). They were plated in RPMI 1640 (RPMI=Roswell Park Memorial Institute) medium without phenol red+10% charcoal-stripped FCS (FCS=Fetal Calf Serum)+2 mM L-Glutamine at 4000 cells/well in a 96-well microtiter plate. […] Cell number was determined by Alamar Blue staining (2 h) at day 7. Fluorescence was determined in a Victor X3 device (excitation 530 nm; emission 590 nm). The inhibition of cell growth was calculated by normalization with respect to the fluorescence reading (cell number) measured at the end of the experiment for cells treated with R1881 alone compared to the fluorescence reading (cell number) measured at the end of the experiment for DMSO-treated cells.

SK-OV-3 = assay: Tumor cell proliferation, SK-OV-3 (crystal violet); format: cell-based; conditions: Homo sapiens, 96 h; SK-OV-3, Ovarian; 4 days; read-out: in vitro (IC50, nM), inhibition of tumor cell proliferation
Source text: as §1

[7] = tested on: PC-3 human prostate cancer cells; assay: Proliferation of PC-3 cells (crystal violet); format: cell-based; conditions: PC-3, 96 h, PC3, Prostate, 4 days, read-out: in vitro (IC50, nM), inhibition of tumor cell proliferation
Protocol: as §3, with “PC-3” for “22RV1”, “DSMZ-German” for “American Type Culture”, “of Microorganisms and Cell Cultures (Germany) (DSMZ ACC-465).” for “(ATCC CRL-2505).”, “DMEM/Ham's F12” for “RPMI1640”, “medium” for “medium supplemented”, “stable Glutamine+10%” for “10%”

HT29 = assay: Tumor cell proliferation, HT29 (crystal violet); format: cell-based; conditions: Homo sapiens, HT-29, 96 h; HT29, Colorectal; 4 days; read-out: in vitro (IC50, nM), inhibition of tumor cell proliferation
Source text: as §1

Jeko-1 = assay: Tumor cell proliferation, Jeko-1 (Cell Titer Glo); format: cell-based; conditions: Homo sapiens, 96 h; Jeko-1, Lymphoma, mantle cell; 4 days; read-out: in vitro (IC50, nM), inhibition of tumor cell proliferation
Protocol: (§4) Non-adherent growing GRANTA-519, Jeko-1, JVM-2, NCI-H929, Rec-1 and SU-DHL-8 cells were seeded in 150 μl of growth medium at 4000 cells/well (NCI-H929, 5000 cells/well) in 96-well microtiter plates and incubated for 24 h at 37° C. […] All measurements were done in quadruplicates.

MIAPaCa2 = assay: Tumor cell proliferation, MIAPaCa2 (crystal violet); format: cell-based; conditions: Homo sapiens, MIA PaCa-2, 96 h; MIAPaCa2, Pancreas; 4 days; read-out: in vitro (IC50, nM), inhibition of tumor cell proliferation
Source text: as §1

HCC70 = assay: Tumor cell proliferation, HCC70 (crystal violet); format: cell-based; conditions: Homo sapiens, 96 h; HCC70, Breast; 4 days; read-out: in vitro (IC50, nM), inhibition of tumor cell proliferation
Source text: as §1

TMD-8 = assay: Tumor cell proliferation, TMD-8; format: cell-based; conditions: Homo sapiens, TMD8, 96 h; TMD-8, Lymphoma, B cell; 4 days; read-out: in vitro (IC50, nM), inhibition of tumor cell proliferation
Source text: as §1

DLD-1 BRCA2 (−/−) = assay: Isogenic tumor cell line proliferation, DLD-1 BRCA2 (−/−); format: cell-based; conditions: Homo sapiens, 168 h, BRCA2 deficiency, 7 days, CTG, read-out: in vitro (IC50, nM), inhibition of isogenic tumor cell line proliferation
Protocol: (§5) The isogenic DLD-1 cell lines DLD-1 parental, DLD-1 BRCA2 (−/−) and DLD-1 ATM (−/−) (see Table 3: Test systems) were seeded in RPMI 1640 (RPMI=Roswell Park Memorial Institute) medium without phenol red+10% charcoal-stripped FCS (FCS=Fetal Calf Serum)+2 mM L-Glutamine+25 mM Sodium Bicarbonate at 2,500 cells/well in a 96-well microtiter plate. […] All measurements were done in quadruplicates.

JVM-2 = assay: Tumor cell proliferation, JVM-2 (Cell Titer Glo); format: cell-based; conditions: Homo sapiens, 96 h; JVM-2, Lymphoma, mantle cell; 4 days; read-out: in vitro (IC50, nM), inhibition of tumor cell proliferation
Protocol: as §4

M059J = assay: Tumor cell proliferation, M059J (crystal violet); format: cell-based; conditions: Homo sapiens, 96 h, Glioblastoma, 4 days, read-out: in vitro (IC50, nM), inhibition of tumor cell proliferation
Source text: as §1

BxPC3 = assay: Tumor cell proliferation, BxPC3 (crystal violet); format: cell-based; conditions: Homo sapiens, BXPC-3, 96 h; BxPC3, Pancreas; 4 days; read-out: in vitro (IC50, nM), inhibition of tumor cell proliferation
Source text: as §1

C4-2B = assay: Tumor cell proliferation, C4-2B (crystal violet); format: cell-based; conditions: Homo sapiens, 96 h, Prostate, 4 days, read-out: in vitro (IC50, nM), inhibition of tumor cell proliferation
Source text: as §1

HT-144 = assay: Tumor cell proliferation, HT-144 (crystal violet); format: cell-based; conditions: Homo sapiens, 96 h; HT-144, Melanoma; 4 days; read-out: in vitro (IC50, nM), inhibition of tumor cell proliferation
Source text: as §1

[8] = tested on: VCaP human prostate cancer cells; assay: Proliferation of VCaP cells (Alamar Blue); format: cell-based; conditions: 168 h, day 7, read-out: in vitro (IC50, nM), inhibition of tumor cell proliferation
Protocol: VCaP human prostate cancer cells were obtained from the VTT Technical Research Center (Finland). They were plated in DMEM medium (DMEM=Dulbecco's Modified Eagle Medium) with stable glutamine+10% FCS at 16000 cells/well in a 96-well microtiter plate. […] Cell number was determined by Alamar Blue staining (2 h) at day 0 and day 7. Fluorescence was determined in a Victor X3 device (excitation 530 nm; emission 590 nm). The inhibition of cell growth was calculated by normalization with respect to the fluorescence reading (cell number) measured at the end of the experiment for cells treated with R1881 alone compared to the fluorescence reading (cell number) measured at the start of the experiment for DMSO-treated cells.

SU-DHL-8 = assay: Tumor cell proliferation, SU-DHL-8 (Cell Titer Glo); format: cell-based; conditions: Homo sapiens, 96 h; SU-DHL-8, Lymphoma, B cell; 4 days; read-out: in vitro (IC50, nM), inhibition of tumor cell proliferation
Protocol: as §4

DLD-1 parental = assay: Isogenic tumor cell line proliferation, DLD-1 parental; format: cell-based; conditions: Homo sapiens, 168 h, Colorectal, 7 days, CTG, read-out: in vitro (IC50, nM), inhibition of isogenic tumor cell line proliferation
Protocol: as §5

REC-1 = assay: Tumor cell proliferation, REC-1 (Cell Titer Glo); format: cell-based; conditions: Homo sapiens, Rec1, 96 h; REC-1, Lymphoma, mantle cell; 4 days; read-out: in vitro (IC50, nM), inhibition of tumor cell proliferation
Protocol: as §4

NCI-H2030 = assay: Tumor cell proliferation, NCI-H2030 (crystal violet); format: cell-based; conditions: Homo sapiens, 96 h; NCI-H2030, Lung; 4 days; read-out: in vitro (IC50, nM), inhibition of tumor cell proliferation
Source text: as §1

AsPc-1 = assay: Tumor cell proliferation, AsPc-1 (crystal violet); format: cell-based; conditions: Homo sapiens, ASPC1, 96 h; AsPc-1, Pancreas; 4 days; read-out: in vitro (IC50, nM), inhibition of tumor cell proliferation
Source text: as §1

A549 = assay: Tumor cell proliferation, A549 (crystal violet); format: cell-based; conditions: Homo sapiens, 96 h; A549, Lung; 4 days; read-out: in vitro (IC50, nM), inhibition of tumor cell proliferation
Source text: as §1

GRANTA-519 = assay: Tumor cell proliferation, GRANTA-519 (Cell Titer Glo); format: cell-based; conditions: Homo sapiens, 96 h; GRANTA-519, Lymphoma, mantle cell; 4 days; read-out: in vitro (IC50, nM), inhibition of tumor cell proliferation
Protocol: as §4

Molecule C[C@@H]1COCCN1c1cc(-c2ccnn2C)c2ccnc(-c3ccn[nH]3)c2n1 [Compound A, 2-[(3R)-3-methylmorpholin-4-yl]-4-(1-methyl-1H-pyrazol-5-yl)-8-(1H-pyrazol-5-yl)-1,7-naphthyridine] has an IC50 (NCI-H23) of 18 nM, an IC50 [1] of 18 nM and an IC50 (U-87MG) of 64 nM. The “Max. weight loss (%)” value [2] was −8%, the “Max. weight loss (%)” value (PC3 xenograft (prostate)) was −7% and the “Max. weight loss (%)” value [3] was −10%. The “Max. weight loss (%)” value [4] was −6%, the IC50 [5] was 36 nM and the IC50 [6] was 55 nM. It also gave an IC50 (SK-OV-3) of 33 nM, an IC50 [7] of 490 nM and an IC50 (HT29) of 160 nM. The IC50 (Jeko-1) was 18 nM, the IC50 (MIAPaCa2) was 380 nM and the IC50 (HCC70) was 27 nM. The IC50 (TMD-8) was 179 nM, the IC50 (DLD-1 BRCA2 (−/−)) was 27 nM and the IC50 (JVM-2) was 32 nM. For the same molecule, the IC50 (M059J) was 80 nM, the IC50 (BxPC3) was 44 nM and the IC50 (C4-2B) was 50 nM. For the same molecule, the IC50 (HT-144) was 40 nM, the IC50 [8] was 51 nM and the IC50 (SU-DHL-8) was 9 nM. It also gave an IC50 (DLD-1 parental) of 50 nM, an IC50 (REC-1) of 10 nM and an IC50 (NCI-H2030) of 160 nM. The IC50 (AsPc-1) was 49 nM, the IC50 (A549) was 29 nM and the IC50 (GRANTA-519) was 30 nM.
